The target in one experiment is human M3 receptor (Homo sapiens (Human), UniProt P20309). In words: Radioligand (tritiated N-methylscopolamine) binding assay, M3. Conditions: CHO cell membranes expressing human M3; 1.5 nM tritiated N-methylscopolamine; 90 min, 37° C.; read-out: Ki against M3 receptor (Table 21, M3). Here is the method:
(§1) Binding affinity (Ki) of compounds was measured by inhibition of radioligand binding to membranes from CHO cells expressing human M1, M2, M3, M4 and M5 receptors. Membranes were prepared by nitrogen cavitation and differential centrifugation as previously described (Hoare et al., Mol. Pharmacol. 2003 March; 63(3): 751-65). The radioligand employed was tritiated N-methylscopolamine, used at a concentration of 1.5 nM. A dose-response of twelve concentrations of compound was used, ranging from 10 μM to […]. The assay buffer was 50 mM HEPES, 100 mM NaCl, 5 mM MgCl2, 1 mM ethylenediaminetetraacetic acid, pH-adjusted to pH 7.4. Membranes, radioligand and compound were incubated together for 90 minutes at 37° C., in a total volume of 150 μl in a 96-well plate. Receptor-bound radioligand was then collected by harvesting the assay over glass fiber filters pretreated with polyethylenimine to trap the cell membranes, using rapid vacuum filtration. Harvesting and radioactivity counting was conducted as previously described (see, e.g., Hoare et al., Mol. Pharmacol. 2003 63(3):751-65); Erratum at Mol. Pharmacol. 2005 July; 68(1): 260).

The target in a further experiment is human M5 receptor (Homo sapiens (Human), UniProt P08912). In words: Radioligand (tritiated N-methylscopolamine) binding assay, M5. Conditions: CHO cell membranes expressing human M5; 1.5 nM tritiated N-methylscopolamine; 90 min, 37° C.; read-out: Ki against M5 receptor (Table 21, M5). As to the method:
as §1

A further experiment has as its target human M2 receptor (Homo sapiens (Human), UniProt P08172). In words: Radioligand (tritiated N-methylscopolamine) binding assay, M2. The conditions noted are these: CHO cell membranes expressing human M2; 1.5 nM tritiated N-methylscopolamine; 90 min, 37° C.; read-out: Ki against M2 receptor (Table 21, M2). The procedure, abridged:
(§2)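 Membranes from CHO cells expressing the receptor were incubated with 1.5 nM radioligand and twelve compound concentrations (10 μM to […]) for 90 min at 37 °C in 50 mM HEPES, 100 mM NaCl, 5 mM MgCl2, 1 mM EDTA, pH 7.4. Bound radioligand was collected by filtration and counted, and Ki was derived from inhibition.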

A further experiment deals with human M4 receptor (Homo sapiens (Human), UniProt P08173). In words: Radioligand (tritiated N-methylscopolamine) binding assay, M4. The conditions noted are these: Ki against the M4 receptor; membranes from CHO cells expressing human M4; tritiated N-methylscopolamine 1.5 nM; read-out: Ki. The procedure, abridged: as §2
For the next experiment, the target named is human M1 receptor (Homo sapiens (Human), UniProt P11229). In words: Radioligand (tritiated N-methylscopolamine) binding assay, M1. Conditions: CHO cell membranes expressing human M1; 1.5 nM tritiated N-methylscopolamine; 90 min, 37° C.; read-out: Ki against M1 receptor (Table 21, M1). As to the method: as §1

SMILES strings stand for the structures. pKi: −log10 of the molar value. Where only a bound is given, the exact number is not on record here.

Sequence of human M2 receptor (P08172 whole entry): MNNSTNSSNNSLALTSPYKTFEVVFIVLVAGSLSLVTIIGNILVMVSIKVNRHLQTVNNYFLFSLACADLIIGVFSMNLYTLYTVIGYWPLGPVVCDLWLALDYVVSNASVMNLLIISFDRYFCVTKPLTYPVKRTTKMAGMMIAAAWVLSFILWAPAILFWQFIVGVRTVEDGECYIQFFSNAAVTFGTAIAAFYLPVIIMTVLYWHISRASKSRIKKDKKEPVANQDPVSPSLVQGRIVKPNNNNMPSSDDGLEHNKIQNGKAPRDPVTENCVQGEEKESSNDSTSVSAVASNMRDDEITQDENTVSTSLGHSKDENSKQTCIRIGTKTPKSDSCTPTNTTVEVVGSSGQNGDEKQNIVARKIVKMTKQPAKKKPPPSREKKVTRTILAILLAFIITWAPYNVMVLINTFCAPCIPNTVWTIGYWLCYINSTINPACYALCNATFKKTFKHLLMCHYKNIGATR
Sequence of human M5 receptor (P08912 whole entry): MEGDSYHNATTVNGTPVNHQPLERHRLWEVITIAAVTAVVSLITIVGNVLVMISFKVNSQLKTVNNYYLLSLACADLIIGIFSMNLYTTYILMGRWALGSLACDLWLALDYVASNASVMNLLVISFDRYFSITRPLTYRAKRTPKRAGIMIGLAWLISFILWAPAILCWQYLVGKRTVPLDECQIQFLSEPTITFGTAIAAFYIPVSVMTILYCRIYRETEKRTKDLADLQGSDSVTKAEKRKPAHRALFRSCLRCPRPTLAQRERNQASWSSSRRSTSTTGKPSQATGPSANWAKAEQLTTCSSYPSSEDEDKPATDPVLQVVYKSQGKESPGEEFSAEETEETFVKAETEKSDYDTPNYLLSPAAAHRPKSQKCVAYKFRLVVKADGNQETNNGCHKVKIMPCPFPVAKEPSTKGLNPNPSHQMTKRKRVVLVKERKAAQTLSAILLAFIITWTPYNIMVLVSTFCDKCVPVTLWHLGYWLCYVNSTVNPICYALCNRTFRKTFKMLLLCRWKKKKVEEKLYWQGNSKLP
Sequence of human M4 receptor (P08173 whole entry): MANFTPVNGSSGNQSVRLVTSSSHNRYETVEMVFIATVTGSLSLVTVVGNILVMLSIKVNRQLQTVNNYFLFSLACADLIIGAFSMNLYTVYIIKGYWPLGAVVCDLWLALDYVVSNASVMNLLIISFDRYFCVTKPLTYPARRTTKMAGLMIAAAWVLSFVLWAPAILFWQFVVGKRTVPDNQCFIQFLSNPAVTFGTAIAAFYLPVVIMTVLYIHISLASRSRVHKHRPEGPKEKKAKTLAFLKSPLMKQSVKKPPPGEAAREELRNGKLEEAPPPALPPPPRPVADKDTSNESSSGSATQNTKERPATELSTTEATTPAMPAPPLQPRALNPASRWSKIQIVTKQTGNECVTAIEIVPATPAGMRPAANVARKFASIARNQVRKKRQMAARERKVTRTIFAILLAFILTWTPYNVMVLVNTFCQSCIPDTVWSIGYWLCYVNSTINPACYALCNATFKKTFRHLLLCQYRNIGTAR
Sequence of human M3 receptor (P20309 whole entry): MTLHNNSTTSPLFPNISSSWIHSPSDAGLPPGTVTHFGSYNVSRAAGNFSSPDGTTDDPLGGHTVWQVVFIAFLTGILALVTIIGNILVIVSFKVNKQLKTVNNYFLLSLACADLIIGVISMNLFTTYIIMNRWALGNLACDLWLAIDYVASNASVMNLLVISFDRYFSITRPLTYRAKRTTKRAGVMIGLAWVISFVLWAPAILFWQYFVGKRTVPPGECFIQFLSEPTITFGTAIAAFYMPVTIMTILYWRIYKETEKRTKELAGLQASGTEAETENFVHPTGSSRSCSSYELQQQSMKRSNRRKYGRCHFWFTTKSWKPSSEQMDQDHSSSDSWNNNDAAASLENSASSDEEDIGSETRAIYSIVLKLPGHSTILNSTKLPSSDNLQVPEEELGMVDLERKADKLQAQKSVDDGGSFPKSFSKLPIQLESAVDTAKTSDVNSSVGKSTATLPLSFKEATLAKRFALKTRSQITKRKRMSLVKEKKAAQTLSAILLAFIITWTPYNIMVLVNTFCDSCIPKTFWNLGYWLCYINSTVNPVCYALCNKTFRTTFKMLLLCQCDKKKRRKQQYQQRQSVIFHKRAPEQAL
Sequence of human M1 receptor (P11229 whole entry): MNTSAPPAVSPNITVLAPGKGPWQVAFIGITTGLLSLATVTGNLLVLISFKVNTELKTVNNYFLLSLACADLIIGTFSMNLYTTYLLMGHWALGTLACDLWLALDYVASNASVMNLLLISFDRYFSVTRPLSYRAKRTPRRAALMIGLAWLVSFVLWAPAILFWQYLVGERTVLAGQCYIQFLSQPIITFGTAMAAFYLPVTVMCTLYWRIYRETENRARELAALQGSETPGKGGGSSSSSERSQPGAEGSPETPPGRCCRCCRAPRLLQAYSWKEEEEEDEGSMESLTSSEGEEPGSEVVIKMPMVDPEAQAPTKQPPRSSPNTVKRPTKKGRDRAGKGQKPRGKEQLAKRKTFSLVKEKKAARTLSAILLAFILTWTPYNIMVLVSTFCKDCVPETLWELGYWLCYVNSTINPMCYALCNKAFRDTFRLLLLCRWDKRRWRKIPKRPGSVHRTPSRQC

For `C[C@@H]1CN(c2cc(C(F)(F)F)ccn2)CCN1C(=O)NCCC1CCN(Cc2ccccc2)CC1` [4-12, (2R)-N-[2-(1-benzylpiperidin-4-yl)ethyl]-2-methyl-4-[4-(trifluoromethyl)pyridin-2-yl]piperazine-1-carboxamide], the negative logarithm of the Ki (pKi) at human M3 receptor is 6.00 to 7.00; at human M5 receptor, less than 6.00; on human M2 receptor it was 7.00 to 8.00; on human M4 receptor, greater than 8.00; at human M1 receptor, 6.00 to 7.00.

With `Cc1ccc(N2CCN(C(=O)NCCC3CCN(Cc4ccccc4)CC3)[C@H](C)C2)cc1F` [4-13, (2R)-N-[2-(1-benzylpiperidin-4-yl)ethyl]-4-(3-fluoro-4-methylphenyl)-2-methylpiperazine-1-carboxamide], the pKi is less than 6.00 on human M3 receptor; less than 6.00 at human M5 receptor; 6.00 to 7.00 at human M2 receptor; greater than 8.00 on human M4 receptor; less than 6.00 on human M1 receptor.

Turning to `C[C@@H]1CN(c2ccc(F)c(F)c2)CCN1C(=O)NCCC1CCN(Cc2ccccc2)CC1` [4-15, (2R)-N-[2-(1-benzylpiperidin-4-yl)ethyl]-4-(3,4-difluorophenyl)-2-methylpiperazine-1-carboxamide], the pKi on human M3 receptor was less than 6.00; on human M5 receptor, less than 6.00; at human M2 receptor, 6.00 to 7.00; on human M4 receptor, greater than 8.00; on human M1 receptor it was 6.00 to 7.00.

For `C[C@@H]1CN(C(=O)NCCC2CCN(Cc3ccccc3)CC2)CCN1c1cc(F)c(F)c(F)c1` [4-17, (3R)-N-[2-(1-benzylpiperidin-4-yl)ethyl]-3-methyl-4-(3,4,5-trifluorophenyl)piperazine-1-carboxamide], the pKi at human M3 receptor is less than 6.00; at human M5 receptor, less than 6.00; at human M2 receptor, 6.00 to 7.00; on human M4 receptor it was greater than 8.00; at human M1 receptor, less than 6.00.

With `C[C@@H]1CN(C(=O)NCCC2CCN(Cc3ccccc3)CC2)CCN1c1ccc(OC(F)(F)F)cc1` [4-18, (3R)-N-[2-(1-benzylpiperidin-4-yl)ethyl]-3-methyl-4-[4-(trifluoromethoxy)phenyl]piperazine-1-carboxamide], the pKi on human M3 receptor is less than 6.00; at human M5 receptor, less than 6.00; on human M2 receptor, 6.00 to 7.00; at human M4 receptor, greater than 8.00; on human M1 receptor, less than 6.00.

As for `Cc1nc(N2CCN(C(=O)NCCC3CCN(Cc4ccccc4)CC3)[C@H](C)C2)ccc1F` [4-19, (2R)-N-[2-(1-benzylpiperidin-4-yl)ethyl]-4-(5-fluoro-6-methylpyridin-2-yl)-2-methylpiperazine-1-carboxamide], the pKi at human M3 receptor is less than 6.00; at human M5 receptor, less than 6.00; on human M2 receptor it was 6.00 to 7.00; on human M4 receptor, greater than 8.00; on human M1 receptor, 6.00 to 7.00.

On to `C[C@H]1CN(c2ccc(F)c(C#N)c2)CCN1C(=O)NCCC1CCN(Cc2ccccc2)CC1` [4-20, (2S)-N-[2-(1-benzylpiperidin-4-yl)ethyl]-4-(3-cyano-4-fluorophenyl)-2-methylpiperazine-1-carboxamide], for which the pKi at human M3 receptor is less than 6.00; at human M5 receptor, less than 6.00; at human M2 receptor, 7.00 to 8.00; on human M4 receptor it was greater than 8.00; on human M1 receptor it was 6.00 to 7.00.

In the case of `C[C@H]1CN(c2ccc(OC(F)(F)F)c(C#N)c2)CCN1C(=O)NCCC1CCN(Cc2ccccc2)CC1` [4-21, (2S)-N-[2-(1-benzylpiperidin-4-yl)ethyl]-4-[3-cyano-4-(trifluoromethoxy)phenyl]-2-methylpiperazine-1-carboxamide], the pKi was 6.00 to 7.00 at human M3 receptor; less than 6.00 on human M5 receptor; 7.00 to 8.00 on human M2 receptor; greater than 8.00 at human M4 receptor; 6.00 to 7.00 on human M1 receptor.

In the case of `C[C@@H]1CN(C(=O)NCCC2CCN(Cc3ccccc3)CC2)CCN1c1ccc(OC(F)(F)F)c(F)c1` [4-22, (3R)-N-[2-(1-benzylpiperidin-4-yl)ethyl]-4-[3-fluoro-4-(trifluoromethoxy)phenyl]-3-methylpiperazine-1-carboxamide], the pKi at human M3 receptor is less than 6.00; at human M5 receptor, 6.00 to 7.00; at human M2 receptor, 6.00 to 7.00; on human M4 receptor, greater than 8.00; on human M1 receptor, less than 6.00.

Turning to `C[C@@H]1CN(c2cc(F)c(F)c(Cl)c2)CCN1C(=O)NCCC1CCN(Cc2ccccc2)CC1` [4-52, (2R)-N-[2-(1-benzylpiperidin-4-yl)ethyl]-4-(3-chloro-4,5-difluorophenyl)-2-methylpiperazine-1-carboxamide], the pKi was 6.00 to 7.00 at human M3 receptor; less than 6.00 on human M5 receptor; 7.00 to 8.00 at human M2 receptor; greater than 8.00 at human M4 receptor; 6.00 to 7.00 at human M1 receptor.

Turning to `C[C@H]1CN(c2ccc(OC(F)(F)F)c(F)c2)CCN1C(=O)NCCC1CCN(Cc2ccccc2)CC1` [4-53, (2S)-N-[2-(1-benzylpiperidin-4-yl)ethyl]-4-[3-fluoro-4-(trifluoromethoxy)phenyl]-2-methylpiperazine-1-carboxamide], the pKi on human M3 receptor was 6.00 to 7.00; on human M5 receptor, 6.00 to 7.00; on human M2 receptor, 7.00 to 8.00; at human M4 receptor it was greater than 8.00; on human M1 receptor it was 6.00 to 7.00.

With `C[C@@H]1CN(c2cc(F)c(OC(F)(F)F)c(F)c2)CCN1C(=O)NCCC1CCN(Cc2ccccc2)CC1` [4-60, (2R)-N-[2-(1-benzylpiperidin-4-yl)ethyl]-4-[3,5-difluoro-4-(trifluoromethoxy)phenyl]-2-methylpiperazine-1-carboxamide], the pKi on human M3 receptor was 6.00 to 7.00; on human M5 receptor it was 6.00 to 7.00; on human M2 receptor, 7.00 to 8.00; at human M4 receptor, greater than 8.00; at human M1 receptor, 6.00 to 7.00.

Take `C[C@@H]1CN(c2cccc(C#N)c2)CCN1C(=O)NCCC1CCN(Cc2ccccc2)CC1` [4-68, (2R)-N-[2-(1-benzylpiperidin-4-yl)ethyl]-4-(3-cyanophenyl)-2-methylpiperazine-1-carboxamide]: the negative-log Ki (pKi) on human M3 receptor is less than 6.00; at human M5 receptor, less than 6.00; on human M2 receptor, 6.00 to 7.00; at human M4 receptor, greater than 8.00; at human M1 receptor, 6.00 to 7.00.

With `C[C@H]1CN(C(=O)NCCC2CCN(Cc3ccccc3)CC2)CCN1c1cc(F)c(F)c(F)c1` [4-71, (3S)-N-[2-(1-benzylpiperidin-4-yl)ethyl]-3-methyl-4-(3,4,5-trifluorophenyl)piperazine-1-carboxamide], the pKi at human M3 receptor is less than 6.00; on human M5 receptor, less than 6.00; on human M2 receptor, 6.00 to 7.00; at human M4 receptor it was greater than 8.00; at human M1 receptor, 6.00 to 7.00.

Consider `C[C@@H]1CN(c2ccc(C(F)(F)F)cc2F)CCN1C(=O)NCCC1CCN(Cc2ccccc2)CC1` [4-73, (2R)-N-[2-(1-benzylpiperidin-4-yl)ethyl]-4-[2-fluoro-4-(trifluoromethyl)phenyl]-2-methylpiperazine-1-carboxamide], for which the pKi was 6.00 to 7.00 at human M3 receptor; less than 6.00 on human M5 receptor; 7.00 to 8.00 at human M2 receptor; greater than 8.00 at human M4 receptor; 6.00 to 7.00 at human M1 receptor.

Turning to `O=C(NCCC1CCN(Cc2ccccc2)CC1)N1CCN(c2ccc(C(F)(F)F)cc2)CC1` [4-76, N-[2-(1-benzylpiperidin-4-yl)ethyl]-4-[4-(trifluoromethyl)phenyl]piperazine-1-carboxamide], the pKi at human M3 receptor was less than 6.00; at human M5 receptor it was less than 6.00; at human M2 receptor, 6.00 to 7.00; on human M4 receptor, greater than 8.00; on human M1 receptor, less than 6.00.

Consider `O=C(NCCC1CCN(Cc2ccccc2)CC1)N1CCN(c2ccc(C(F)(F)F)cn2)CC1` [4-77, N-[2-(1-benzylpiperidin-4-yl)ethyl]-4-[5-(trifluoromethyl)pyridin-2-yl]piperazine-1-carboxamide], for which the negative-log Ki (pKi) at human M3 receptor was less than 6.00; at human M5 receptor it was less than 6.00; on human M2 receptor, 7.00 to 8.00; on human M4 receptor it was greater than 8.00; at human M1 receptor, 6.00 to 7.00.

Consider `C[C@@H]1CN(c2cnc(C(F)(F)F)nc2)CCN1C(=O)NCCC1CCN(Cc2ccccc2)CC1` [4-79, (2R)-N-[2-(1-benzylpiperidin-4-yl)ethyl]-2-methyl-4-[2-(trifluoromethyl)pyrimidin-5-yl]piperazine-1-carboxamide], for which the pKi is less than 6.00 at human M3 receptor; less than 6.00 at human M5 receptor; 7.00 to 8.00 on human M2 receptor; greater than 8.00 at human M4 receptor; 6.00 to 7.00 at human M1 receptor.

The values above are taken from patent US11033539B2, “Compounds of formulas (VII), (VIII), (IX), (XI), (XII), (XIII), and (XIV) as muscarinic receptor 4(M4) antagonists for treating neurological diseases” (Neurocrine Biosciences, Inc., priority 2015, dated 2021).
